Experimental data published in patent US6358885B1, “Substituted phenylheterocyclic herbicides” (Mississippi State University, priority 1992, dated 2002).

Experiments:
barley [1] = experiment: Test B preemergence/postemergence greenhouse plant response rating 0 to 10; type: in vivo, Hordeum vulgare; conditions: 0 to 10 scale
Summary of the method: (§1)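 Test chemicals, dissolved in a non-phytotoxic solvent, were applied to soil at planting and, at the same time, over foliage of seedlings at the one to four leaf stage.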

blackgrass = experiment: as above; type: in vivo, Alopecurus myosuroides; conditions: 0 to 10 scale
Summary of the method: as §1

cheatgrass = experiment: as above; type: in vivo, Bromus secalinus; conditions: 0 to 10 scale
Summary of the method: as §1

crabgrass = experiment: as above; type: in vivo, Digitaria spp.; conditions: 0 to 10 scale
Summary of the method: as §1

giant foxtail = experiment: as above; type: in vivo, Setaria faberii; conditions: 0 to 10 scale
Summary of the method: as §1

lambsquarters [2] = experiment: as above; type: in vivo, Chenopodium album; conditions: 0 to 10 scale
Summary of the method: as §1

rape = experiment: as above; type: in vivo, Brassica napus; conditions: 0 to 10 scale
Summary of the method: as §1

soybean [3] = experiment: as above; type: in vivo, Glycine max; conditions: 0 to 10 scale
Summary of the method: as §1

velvetleaf = experiment: as above; type: in vivo, Abutilon theophrasti; conditions: 0 to 10 scale
Summary of the method: as §1

purple nutsedge = experiment: as above; type: in vivo, Cyperus rotundus; conditions: 0 to 10 scale
Summary of the method: as §1

barley [4] = experiment: Test C preemergence/postemergence greenhouse plant response rating 0 to 100; type: in vivo, Hordeum vulgare; conditions: POSTEMERGENCE
Summary of the method: (§2)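 Compounds in non-phytotoxic solvent applied preemergence to sandy loam one day after planting, postemergence at the 1–4 leaf stage, or to ~2.5 cm floodwater over silt loam.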

chickweed = experiment: as above; type: in vivo, Stellaria media; conditions: POSTEMERGENCE
Summary of the method: as §2

lambsquarters [5] = experiment: as above; type: in vivo, Chenopodium album; conditions: POSTEMERGENCE
Summary of the method: as §2

pigweed = experiment: as above; type: in vivo, Amaranthusretroflexus; conditions: POSTEMERGENCE
Summary of the method: as §2

ryegrass = experiment: as above; type: in vivo, Lolium multiflorum; conditions: POSTEMERGENCE
Summary of the method: as §2

soybean [6] = experiment: as above; type: in vivo, Glycine max; conditions: POSTEMERGENCE
Summary of the method: as §2

sugar beet = experiment: as above; type: in vivo, Beta vulgaris; conditions: POSTEMERGENCE
Summary of the method: as §2

wild buckwheat = experiment: as above; type: in vivo, Polygonum convolvulus; conditions: POSTEMERGENCE
Summary of the method: as §2

## C=CCN1C(=O)COc2cc(F)c(-c3nn4c(c3Cl)CCCC4)cc21 [Compound 33]
Barley [1]; POSTEMERGENCE, Rate 10 g/ha
  Plant response rating, Barley: 4
Barley [1]; POSTEMERGENCE, Rate 50 g/ha
  Plant response rating, Barley: 4
Barley [1]; PREEMERGENCE, Rate 10 g/ha
  Plant response rating, Barley: 0
Barley [1]; PREEMERGENCE, Rate 50 g/ha
  Plant response rating, Barley: 1
blackgrass; POSTEMERGENCE, Rate 10 g/ha
  Plant response rating, Blackgrass: 4
blackgrass; POSTEMERGENCE, Rate 50 g/ha
  Plant response rating, Blackgrass: 5
blackgrass; PREEMERGENCE, Rate 10 g/ha
  Plant response rating, Blackgrass: 3
blackgrass; PREEMERGENCE, Rate 50 g/ha
  Plant response rating, Blackgrass: 5
cheatgrass; POSTEMERGENCE, Rate 10 g/ha
  Plant response rating, Cheatgrass: 4
cheatgrass; POSTEMERGENCE, Rate 50 g/ha
  Plant response rating, Cheatgrass: 4
cheatgrass; PREEMERGENCE, Rate 10 g/ha
  Plant response rating, Cheatgrass: 3
cheatgrass; PREEMERGENCE, Rate 50 g/ha
  Plant response rating, Cheatgrass: 6
crabgrass; POSTEMERGENCE, Rate 10 g/ha
  Plant response rating, Crabgrass: 3
crabgrass; POSTEMERGENCE, Rate 50 g/ha
  Plant response rating, Crabgrass: 5
crabgrass; PREEMERGENCE, Rate 10 g/ha
  Plant response rating, Crabgrass: 2
crabgrass; PREEMERGENCE, Rate 50 g/ha
  Plant response rating, Crabgrass: 6
Giant foxtail; POSTEMERGENCE, Rate 10 g/ha
  Plant response rating, Giant foxtail: 4
Giant foxtail; POSTEMERGENCE, Rate 50 g/ha
  Plant response rating, Giant foxtail: 4
Giant foxtail; PREEMERGENCE, Rate 10 g/ha
  Plant response rating, Giant foxtail: 2
Giant foxtail; PREEMERGENCE, Rate 50 g/ha
  Plant response rating, Giant foxtail: 7
Lambsquarters [2]; POSTEMERGENCE, Rate 10 g/ha
  Plant response rating, Lambsquarter: 9
Lambsquarters [2]; POSTEMERGENCE, Rate 50 g/ha
  Plant response rating, Lambsquarter: 10
Lambsquarters [2]; PREEMERGENCE, Rate 50 g/ha
  Plant response rating, Lambsquarter: 10
rape; POSTEMERGENCE, Rate 10 g/ha
  Plant response rating, Rape: 10
rape; POSTEMERGENCE, Rate 50 g/ha
  Plant response rating, Rape: 10
rape; PREEMERGENCE, Rate 50 g/ha
  Plant response rating, Rape: 5
Soybean [3]; POSTEMERGENCE, Rate 10 g/ha
  Plant response rating, Soybean: 8
Soybean [3]; POSTEMERGENCE, Rate 50 g/ha
  Plant response rating, Soybean: 9
Soybean [3]; PREEMERGENCE, Rate 50 g/ha
  Plant response rating, Soybean: 2
velvetleaf; POSTEMERGENCE, Rate 10 g/ha
  Plant response rating, Velvetleaf: 10
velvetleaf; POSTEMERGENCE, Rate 50 g/ha
  Plant response rating, Velvetleaf: 9
velvetleaf; PREEMERGENCE, Rate 50 g/ha
  Plant response rating, Velvetleaf: 9
Purple nutsedge; POSTEMERGENCE, Rate 10 g/ha
  Plant response rating, Nutsedge: 0
Purple nutsedge; POSTEMERGENCE, Rate 50 g/ha
  Plant response rating, Nutsedge: 5
Purple nutsedge; PREEMERGENCE, Rate 50 g/ha
  Plant response rating, Nutsedge: 0
Barley [4]; 62 g/ha, 0 to 100 scale
  Plant response rating Barley Igri: 60
Barley [4]; Rate 1 g/ha
  Plant response rating (0 to 100), Barley Igri: 20
Barley [4]; Rate 4 g/ha
  Plant response rating (0 to 100), Barley Igri: 40
Barley [4]; Rate 16 g/ha
  Plant response rating (0 to 100), Barley Igri: 50
chickweed; 62 g/ha, 0 to 100 scale
  Plant response rating, Chickweed: 100
chickweed; Rate 1 g/ha
  Plant response rating (0 to 100), Chickweed: 40
chickweed; Rate 4 g/ha
  Plant response rating (0 to 100), Chickweed: 60
chickweed; Rate 16 g/ha
  Plant response rating (0 to 100), Chickweed: 85
Lambsquarters [5]; 62 g/ha, 0 to 100 scale
  Plant response rating Lambsquarters: 100
Lambsquarters [5]; Rate 1 g/ha
  Plant response rating (0 to 100), Lambsquarters: 50
Lambsquarters [5]; Rate 4 g/ha
  Plant response rating (0 to 100), Lambsquarters: 70
Lambsquarters [5]; Rate 16 g/ha
  Plant response rating (0 to 100), Lambsquarters: 80
pigweed; 62 g/ha, 0 to 100 scale
  Plant response rating Pigweed: 100
pigweed; Rate 1 g/ha
  Plant response rating (0 to 100), Pigweed: 100
pigweed; Rate 4 g/ha
  Plant response rating (0 to 100), Pigweed: 100
pigweed; Rate 16 g/ha
  Plant response rating (0 to 100), Pigweed: 100
ryegrass; 62 g/ha, 0 to 100 scale
  Plant response rating Ryegrass: 60
ryegrass; Rate 1 g/ha
  Plant response rating (0 to 100), Ryegrass: 30
ryegrass; Rate 4 g/ha
  Plant response rating (0 to 100), Ryegrass: 40
ryegrass; Rate 16 g/ha
  Plant response rating (0 to 100), Ryegrass: 50
Soybean [6]; 62 g/ha, 0 to 100 scale
  Plant response rating, Soybean: 100
Soybean [6]; Rate 1 g/ha
  Plant response rating (0 to 100), Soybean: 30
Soybean [6]; Rate 4 g/ha
  Plant response rating (0 to 100), Soybean: 40
Soybean [6]; Rate 16 g/ha
  Plant response rating (0 to 100), Soybean: 80
Sugar beet; 62 g/ha, 0 to 100 scale
  Plant response rating, Sugar beet: 100
Sugar beet; Rate 1 g/ha
  Plant response rating (0 to 100), Sugar beet: 100
Sugar beet; Rate 4 g/ha
  Plant response rating (0 to 100), Sugar beet: 100
Sugar beet; Rate 16 g/ha
  Plant response rating (0 to 100), Sugar beet: 100
Wild buckwheat; 62 g/ha, 0 to 100 scale
  Plant response rating, Wild buckwheat: 100
Wild buckwheat; Rate 1 g/ha
  Plant response rating (0 to 100), Wild buckwheat: 80
Wild buckwheat; Rate 4 g/ha
  Plant response rating (0 to 100), Wild buckwheat: 90
